In the CheMixHub viscosity set:
“And” between values parts separate entries of the source, which are not always exact repeats. Equal values may be shown once. ± gives the uncertainty stated by the source.

Assay: xn = mol fraction of the nth substance listed

CCC(=O)O + c1ccccc1
101.33 kPa
Conditions | viscosity
293.15 K, x1 = 0.2 | 0.66 ± 0.013 mPa·s and 0.66 ± 0.018 mPa·s
293.15 K, x1 = 0.4 | 0.7 ± 0.019 mPa·s
293.15 K, x1 = 0.5 | 0.734 ± 0.015 mPa·s and 0.734 ± 0.02 mPa·s
293.15 K, x1 = 0.8 | 0.889 ± 0.024 mPa·s
303.15 K, x1 = 0.2 | 0.575 ± 0.016 mPa·s
303.15 K, x1 = 0.4 | 0.61 ± 0.017 mPa·s
303.15 K, x1 = 0.5 | 0.639 ± 0.017 mPa·s
303.15 K, x1 = 0.8 | 0.774 ± 0.021 mPa·s
308.15 K, x1 = 0.0534 | 0.5535 ± 0.0073 mPa·s
308.15 K, x1 = 0.1063 | 0.5551 ± 0.0073 mPa·s
308.15 K, x1 = 0.1575 | 0.5617 ± 0.0072 mPa·s
308.15 K, x1 = 0.2 | 0.542 ± 0.011 mPa·s and 0.542 ± 0.015 mPa·s
308.15 K, x1 = 0.2079 | 0.5677 ± 0.0072 mPa·s
308.15 K, x1 = 0.3318 | 0.5849 ± 0.0071 mPa·s
308.15 K, x1 = 0.4 | 0.575 ± 0.016 mPa·s
308.15 K, x1 = 0.4118 | 0.5998 ± 0.0072 mPa·s
308.15 K, x1 = 0.5 | 0.602 ± 0.012 mPa·s and 0.602 ± 0.016 mPa·s
308.15 K, x1 = 0.5132 | 0.6282 ± 0.0073 mPa·s
308.15 K, x1 = 0.6132 | 0.6564 ± 0.0073 mPa·s
308.15 K, x1 = 0.7107 | 0.7012 ± 0.0076 mPa·s
308.15 K, x1 = 0.8 | 0.729 ± 0.02 mPa·s
308.15 K, x1 = 0.8085 | 0.7408 ± 0.0078 mPa·s
308.15 K, x1 = 0.8566 | 0.7662 ± 0.0079 mPa·s
308.15 K, x1 = 0.9045 | 0.8033 ± 0.0082 mPa·s
308.15 K, x1 = 0.9524 | 0.8347 ± 0.0084 mPa·s
318.15 K, x1 = 0.2 | 0.48 ± 0.013 mPa·s
318.15 K, x1 = 0.4 | 0.51 ± 0.014 mPa·s
318.15 K, x1 = 0.5 | 0.533 ± 0.014 mPa·s
318.15 K, x1 = 0.8 | 0.643 ± 0.017 mPa·s

OC[C@@H](O)[C@@H](O)CO + O
viscosity [mPa·s], 101.3 kPa
Conditions | x1 = 0.003586 | x1 = 0.007154 | x1 = 0.01069 | x1 = 0.01421 | x1 = 0.0177 | x1 = 0.02631 | x1 = 0.03478 | x1 = 0.0431 | x1 = 0.05128
293.15 K | – | – | – | 1.25 ± 0.08 | – | 1.53 ± 0.09 | 1.78 ± 0.11 | 2.04 ± 0.12 | 2.32 ± 0.14
303.15 K | 0.84 ± 0.05 | 0.89 ± 0.05 | 0.95 ± 0.06 | 0.99 ± 0.06 | 1.07 ± 0.06 | 1.18 ± 0.07 | 1.36 ± 0.08 | 1.54 ± 0.09 | 1.73 ± 0.1
313.15 K | – | 0.71 ± 0.04 | 0.76 ± 0.05 | 0.79 ± 0.05 | 0.85 ± 0.05 | 0.94 ± 0.06 | 1.05 ± 0.06 | 1.18 ± 0.07 | 1.33 ± 0.08
323.15 K | 0.57 ± 0.03 | 0.6 ± 0.04 | 0.64 ± 0.04 | 0.66 ± 0.04 | 0.71 ± 0.04 | 0.77 ± 0.05 | 0.87 ± 0.05 | 0.95 ± 0.06 | 1.06 ± 0.06

ClCCCCCl + CC(C)(C)O
viscosity [mPa·s], 101 kPa
Conditions | x1 = 0.1005 | x1 = 0.2009 | x1 = 0.2964 | x1 = 0.435 | x1 = 0.5026 | x1 = 0.602 | x1 = 0.7061 | x1 = 0.8038 | x1 = 0.9014
298.15 K | 2.618 ± 0.025 | 1.826 ± 0.018 | 1.482 ± 0.014 | 1.315 ± 0.012 | 1.257 ± 0.012 | 1.202 ± 0.011 | 1.18 ± 0.011 | 1.182 ± 0.011 | 1.208 ± 0.011
313.15 K | 1.495 ± 0.019 | 1.18 ± 0.013 | 1.035 ± 0.01 | 0.9459 ± 0.0096 | 0.9313 ± 0.0093 | 0.9139 ± 0.009 | 0.916 ± 0.009 | 0.9291 ± 0.0092 | 0.9613 ± 0.0095

Nc1cccc(Cl)c1 + CCCCCCCCCCO
viscosity [mPa·s], 101 kPa
Conditions | x1 = 0.1699 | x1 = 0.3153 | x1 = 0.4411 | x1 = 0.5511 | x1 = 0.6481 | x1 = 0.7342 | x1 = 0.8112 | x1 = 0.8805 | x1 = 0.9431
303.15 K | 8.772 ± 0.26 | 7.947 ± 0.24 | 7.247 ± 0.22 | 6.641 ± 0.21 | 6.113 ± 0.19 | 5.648 ± 0.18 | 5.238 ± 0.17 | 4.871 ± 0.16 | 4.546 ± 0.15
308.15 K | 7.358 ± 0.22 | 6.71 ± 0.21 | 6.16 ± 0.19 | 5.687 ± 0.18 | 5.274 ± 0.17 | 4.912 ± 0.16 | 4.593 ± 0.15 | 4.31 ± 0.14 | 4.061 ± 0.14
313.15 K | 6.213 ± 0.2 | 5.693 ± 0.18 | 5.254 ± 0.17 | 4.878 ± 0.16 | 4.549 ± 0.15 | 4.262 ± 0.14 | 4.01 ± 0.13 | 3.788 ± 0.13 | 3.596 ± 0.12
318.15 K | 5.338 ± 0.17 | 4.899 ± 0.16 | 4.532 ± 0.15 | 4.217 ± 0.14 | 3.943 ± 0.13 | 3.704 ± 0.12 | 3.494 ± 0.12 | 3.311 ± 0.11 | 3.153 ± 0.11

CCC(=O)O + C1CCOC1
298.15 K, 101 kPa
Conditions | viscosity [mPa·s]
x2 = 0.1025 | 1.067 ± 0.009
x2 = 0.2043 | 1.069 ± 0.009
x2 = 0.3057 | 1.033 ± 0.0087
x2 = 0.4065 | 0.9675 ± 0.0082
x2 = 0.5067 | 0.8745 ± 0.0074
x2 = 0.6065 | 0.7835 ± 0.0067
x2 = 0.7056 | 0.6858 ± 0.0059
x2 = 0.8043 | 0.5947 ± 0.0052
x2 = 0.9024 | 0.5179 ± 0.0045

Nc1cccc(Cl)c1 + COCCO
303.15 K, 101 kPa
Conditions | viscosity [mPa·s]
x1 = 0.0687 | 2.116 ± 0.54
x1 = 0.1403 | 2.27 ± 0.58
x1 = 0.238 | 2.434 ± 0.62
x1 = 0.3592 | 2.586 ± 0.66
x1 = 0.4287 | 2.72 ± 0.69
x1 = 0.5233 | 2.844 ± 0.72
x1 = 0.6416 | 2.949 ± 0.75
x1 = 0.7401 | 3.05 ± 0.78
x1 = 0.8794 | 3.143 ± 0.8

CCC(=O)O + CCCO
308.15 K, 101 kPa
Conditions | viscosity [mPa·s]
x1 = 0.0416 | 1.42 ± 0.061
x1 = 0.084 | 1.443 ± 0.061
x1 = 0.1244 | 1.439 ± 0.06
x1 = 0.1683 | 1.368 ± 0.059
x1 = 0.2579 | 1.351 ± 0.057
x1 = 0.3504 | 1.328 ± 0.056
x1 = 0.4481 | 1.289 ± 0.055
x1 = 0.5489 | 1.242 ± 0.053
x1 = 0.6538 | 1.178 ± 0.052
x1 = 0.7644 | 1.096 ± 0.051
x1 = 0.8223 | 1.055 ± 0.051
x1 = 0.8798 | 1.006 ± 0.051
x1 = 0.9384 | 0.9669 ± 0.051

ClCCCCCl + CCC(C)O
101 kPa
Conditions | viscosity [mPa·s]
298.15 K, x1 = 0.1012 | 2.118 ± 0.021
298.15 K, x1 = 0.2021 | 1.633 ± 0.016
298.15 K, x1 = 0.2996 | 1.408 ± 0.014
298.15 K, x1 = 0.4004 | 1.281 ± 0.013
298.15 K, x1 = 0.4967 | 1.199 ± 0.012
298.15 K, x1 = 0.5999 | 1.158 ± 0.011
298.15 K, x1 = 0.7024 | 1.143 ± 0.011
298.15 K, x1 = 0.7987 | 1.151 ± 0.011
298.15 K, x1 = 0.899 | 1.199 ± 0.012
313.15 K, x1 = 0.1002 | 1.369 ± 0.016
313.15 K, x1 = 0.2041 | 1.123 ± 0.015
313.15 K, x1 = 0.3125 | 0.9913 ± 0.015
313.15 K, x1 = 0.3996 | 0.9298 ± 0.016
313.15 K, x1 = 0.5046 | 0.8882 ± 0.017
313.15 K, x1 = 0.6034 | 0.8716 ± 0.018
313.15 K, x1 = 0.7008 | 0.8721 ± 0.019
313.15 K, x1 = 0.8052 | 0.8932 ± 0.021
313.15 K, x1 = 0.9001 | 0.9458 ± 0.023

O=C(O)c1cccnc1 + O
viscosity [mPa·s]
Conditions | 100 kPa | 101 kPa
298.15 K, x1 = 0.000225 | 0.8934 ± 0.011 | 0.8934 ± 0.0078
298.15 K, x1 = 0.000268 | 0.903 ± 0.031 | –
298.15 K, x1 = 0.000452 | 0.8963 ± 0.011 | 0.8963 ± 0.0078
298.15 K, x1 = 0.0005074 | – | 0.8966 ± 0.0065
298.15 K, x1 = 0.0007821 | – | 0.9016 ± 0.0065
298.15 K, x1 = 0.000808 | 0.908 ± 0.031 | –
298.15 K, x1 = 0.000907 | 0.902 ± 0.011 | 0.902 ± 0.0078
298.15 K, x1 = 0.00135 | 0.913 ± 0.031 | –
298.15 K, x1 = 0.0015 | – | 0.893 ± 0.03
298.15 K, x1 = 0.00162 | 0.916 ± 0.031 | –
303.15 K, x1 = 0.000542 | 0.809 ± 0.031 | –
303.15 K, x1 = 0.000808 | 0.812 ± 0.031 | –
303.15 K, x1 = 0.00108 | 0.814 ± 0.031 | –
308.15 K, x1 = 0.000452 | – | 0.7233 ± 0.0064
308.15 K, x1 = 0.0005074 | – | 0.7239 ± 0.0059
308.15 K, x1 = 0.00108 | 0.746 ± 0.031 | –
308.15 K, x1 = 0.001153 | – | 0.7288 ± 0.0059
308.15 K, x1 = 0.001301 | – | 0.7321 ± 0.0059
308.15 K, x1 = 0.00135 | 0.75 ± 0.031 | –
308.15 K, x1 = 0.00136 | 0.732 ± 0.009 | 0.732 ± 0.0068
308.15 K, x1 = 0.001617 | – | 0.7347 ± 0.0059
308.15 K, x1 = 0.00162 | 0.754 ± 0.031 | –
308.15 K, x1 = 0.001957 | – | 0.7385 ± 0.0059
313.15 K, x1 = 0.000808 | 0.673 ± 0.031 | –
313.15 K, x1 = 0.00108 | 0.677 ± 0.031 | –
313.15 K, x1 = 0.00135 | 0.681 ± 0.031 | –
313.15 K, x1 = 0.00162 | 0.685 ± 0.031 | –
318.15 K, x1 = 0.000225 | 0.5976 ± 0.0075 | 0.5976 ± 0.0054
318.15 K, x1 = 0.000268 | 0.61 ± 0.031 | –
318.15 K, x1 = 0.000542 | 0.614 ± 0.031 | –
318.15 K, x1 = 0.0007 | – | 0.584 ± 0.025
318.15 K, x1 = 0.0007821 | – | 0.602 ± 0.0054
318.15 K, x1 = 0.000808 | 0.617 ± 0.031 | –
318.15 K, x1 = 0.000907 | 0.6036 ± 0.0075 | 0.6036 ± 0.0054
318.15 K, x1 = 0.00108 | 0.62 ± 0.031 | –
318.15 K, x1 = 0.001153 | – | 0.6035 ± 0.0054
318.15 K, x1 = 0.00135 | 0.624 ± 0.031 | –
318.15 K, x1 = 0.00136 | 0.608 ± 0.0076 | 0.608 ± 0.0055
318.15 K, x1 = 0.0015 | – | 0.587 ± 0.025
318.15 K, x1 = 0.001617 | – | 0.6081 ± 0.0055
318.15 K, x1 = 0.00162 | 0.628 ± 0.031 | –
318.15 K, x1 = 0.001957 | – | 0.61 ± 0.0055
318.15 K, x1 = 0.0022 | – | 0.589 ± 0.025
